Patent publication US20260259195A1, “REAL-TIME TRACKING OF APOPTOSIS” (FUNDACIÓ INSTITUT DE BIOENGINYERIA DE CATALUNYA (IBEC), priority 2022, published 2026)
Entries after “also recorded” stand apart in the source; their conditions may differ. Like-named read-outs stand apart in the source and are kept apart here.

Experiments:
[1] = test system: GIST-T1 cell line; assay: Real-time tracking of apoptosis (RTA) with flow cytometry; assay type: cell-based; settings: 16 h drug pre-treatment; titration of combination A, 3 hours
[2] = test system: GIST-T1/670 cell line; assay: as above; assay type: cell-based; settings: 16 h drug pre-treatment; titration of combination A, 3 hours
[3] = test system: GIST-T1/670 cell line; assay: RTA with fluorescence microscopy (TMRE); assay type: cell-based; settings: 16 h drug pre-treatment; titration of combination A, 3 hours
[4] = test system: GIST-T1 cell line; settings: 16 h drug pre-treatment (imatinib 1000 nM, gefitinib 1000 nM); BIM peptide titration with digitonin
[5] = test system: GIST-T1/670 cell line; settings: 16 h drug pre-treatment (imatinib 1000 nM, gefitinib 1000 nM); BIM peptide titration with digitonin
[6] = test system: GIST-T1 cell line; settings: 16 h drug pre-treatment; for Percentage of TMRE positive cells, dose-response curve versus control: titration of combination A, 3 hours
[7] = test system: GIST-T1 cells; settings: 16 h drug pre-treatment; combination A gradient generated by the device

SMILES | Percentage of cytochrome c retained, dose-response curve versus control [1] | Percentage of cytochrome c retained, dose-response curve versus control [2] | Percentage of TMRE positive cells, dose-response curve versus control [3] | Percentage of cytochrome c retained, dose-response curve versus control [4] | Percentage of cytochrome c retained, dose-response curve versus control [5] | Percentage of TMRE positive cells, dose-response curve versus control [6] | Percentage of TMRE positive cells, dose-response curve versus control [7] | Δ% priming ([6]; microscopy RTA with combination A)
COc1cc2ncnc(Nc3ccc(F)c(Cl)c3)c2cc1OCCCN1CCOCC1 [gefitinib] | produced the same curve as the control conditions | produced the same curve as the control conditions | produced an unaltered curve | showed a similar profile as the control | the same dose-response curve | this was not observed | the same response | 
Cc1ccc(NC(=O)c2ccc(CN3CCN(C)CC3)cc2)cc1Nc1nccc(-c2cccnc2)n1 [imatinib] |  |  | produced an unaltered curve |  |  | caused a shift of the curve identifying an increase in apoptotic priming; also recorded: induction of apoptotic priming |  | a clear increase in apoptotic priming; also recorded: increase of apoptotic priming
